Experimental data published in ChEMBL document CHEMBL3217550, “Synthesis and synergistic antimycobacterial screening of chlorpromazine and its metabolites” (2014).
Converted amounts (≈) assume the structure as drawn.

What was measured:
Type in all cases: functional
[1] = system: Mycolicibacterium smegmatis; experiment: Antimycobacterial against Mycobacterium smegmatis
[2] = system: Mycolicibacterium smegmatis; experiment: Antimycobacterial against Mycobacterium smegmatis in presence of streptomycin
[3] = system: Mycolicibacterium smegmatis; experiment: Antimycobacterial against Mycobacterium smegmatis in presence of 25-desacetylrifampicin
[4] = system: Mycolicibacterium smegmatis; experiment: Antimycobacterial against Mycobacterium smegmatis in presence of spectinomycin
[5] = system: Mycolicibacterium smegmatis; experiment: Antimycobacterial against Mycobacterium smegmatis in presence of rifampicin
[6] = system: Mycolicibacterium smegmatis; experiment: Antimycobacterial against Mycobacterium smegmatis in presence of kanamycin
[7] = system: Mycolicibacterium smegmatis; experiment: Antimycobacterial against Mycobacterium smegmatis in presence of chlorpromazine
[8] = system: Mycolicibacterium smegmatis; experiment: Antimycobacterial against Mycobacterium smegmatis in presence of TMC207
[9] = system: Mycolicibacterium smegmatis; experiment: Antimycobacterial against Mycobacterium smegmatis in presence of ciprofloxacin

`CNCCCN1c2ccccc2[S+]([O-])c2ccc(Cl)cc21` (configuration not stated) was tested, and the MIC99 [1] was > 2080 µM.

For `C[N+](C)([O-])CCCN1c2ccccc2Sc2ccc(Cl)cc21`, the MIC99 [1] was 995 µM (≈ 333 µg/mL), the “fractional inhibitory concentration index (FICI)” value [2] was 0.74 and the “fractional inhibitory concentration index (FICI)” value [3] was 0.75. The “fractional inhibitory concentration index (FICI)” value [4] was 0.63, the “fractional inhibitory concentration index (FICI)” value [5] was 1 and the “fractional inhibitory concentration index (FICI)” value [6] was 1.

For `C[N+](C)([O-])CCCN1c2ccccc2[S+]([O-])c2ccc(Cl)cc21` (configuration not stated), the MIC99 [1] was > 1900 µM.

With `CN(C)CCCN1c2ccc(O)cc2Sc2ccc(Cl)cc21` [7-HYDROXYCHLORPROMAZINE] the MIC99 [1] was 62.2 µM (≈ 20.8 µg/mL), the “fractional inhibitory concentration index (FICI)” value [2] was 0.79 and the “fractional inhibitory concentration index (FICI)” value [3] was 0.75. For the same compound, the “fractional inhibitory concentration index (FICI)” value [4] was 0.19, the “fractional inhibitory concentration index (FICI)” value [5] was 0.63 and the “fractional inhibitory concentration index (FICI)” value [7] was 0.75. For the same compound, the “fractional inhibitory concentration index (FICI)” value [6] was 0.5.

Compound `COc1nc2ccc(Br)cc2cc1[C@@H](c1ccccc1)[C@@](O)(CCN(C)C)c1cccc2ccccc12` [BEDAQUILINE] has an MIC99 [1] of 0.05 µM (≈ 0.0278 µg/mL).

With `CN(C)CCCN1c2ccccc2[S+]([O-])c2ccc(Cl)cc21` (configuration not stated) [CHLOROPROMAZINE SULFOXIDE] the MIC99 [1] was > 1990 µM.

In the case of `CN(C)CCCN1c2ccccc2Sc2ccc(Cl)cc21` [CHLORPROMAZINE], the MIC99 [1] is reported as 58.6 µM (≈ 18.7 µg/mL), the “fractional inhibitory concentration index (FICI)” value [8] is reported as 0.7 and the “fractional inhibitory concentration index (FICI)” value [2] is reported as 0.79. The “fractional inhibitory concentration index (FICI)” value [3] was 0.5, the “fractional inhibitory concentration index (FICI)” value [4] was 0.31 and the “fractional inhibitory concentration index (FICI)” value [5] was 0.63. For the same compound, the “fractional inhibitory concentration index (FICI)” value [9] was 0.73 and the “fractional inhibitory concentration index (FICI)” value [6] was 1.

With `O=C(O)c1cn(C2CC2)c2cc(N3CCNCC3)c(F)cc2c1=O` [CIPROFLOXACIN] the MIC99 [1] was 0.63 µM (≈ 0.209 µg/mL).

For `CO[C@H]1/C=C/O[C@@]2(C)Oc3c(C)c(O)c4c(O)c(c(/C=N/N5CCN(C)CC5)c(O)c4c3C2=O)NC(=O)/C(C)=C\C=C\[C@H](C)[C@H](O)[C@@H](C)[C@@H](O)[C@@H](C)[C@H](O)[C@@H]1C` [DESACETYLRIFAMPIN], the MIC99 [1] was 1.33 µM (≈ 1.04 µg/mL) and the “fractional inhibitory concentration index (FICI)” value [5] was 0.5.

Compound `CC[C@@H](CO)NCCN[C@@H](CC)CO` [ETHAMBUTOL] has an MIC99 [1] of 0.76 µM (≈ 0.155 µg/mL).

`NC[C@H]1O[C@H](O[C@H]2[C@H](O)[C@@H](O[C@H]3O[C@H](CO)[C@@H](O)[C@H](N)[C@H]3O)[C@H](N)C[C@@H]2N)[C@H](O)[C@@H](O)[C@@H]1O` [KANAMYCIN] was tested, and the MIC99 [1] was 1.76 µM (≈ 0.853 µg/mL).

Work on `C[C@H]1COc2c(N3CCN(C)CC3)c(F)cc3c(=O)c(C(=O)O)cn1c23` [LEVOFLOXACIN] yielded an MIC99 [1] of 0.58 µM (≈ 0.21 µg/mL).

For `CCn1cc(C(=O)O)c(=O)c2ccc(C)nc21` [NALIDIXIC ACID], the MIC99 [1] was 1440 µM (≈ 333 µg/mL).

`CNCCCN1c2ccccc2Sc2ccc(Cl)cc21` [NOR1-CHLORPROMAZINE] was tested, and the MIC99 [1] was 63.3 µM (≈ 19.3 µg/mL), the “fractional inhibitory concentration index (FICI)” value [2] was 0.49 and the “fractional inhibitory concentration index (FICI)” value [3] was 0.5. For the same compound, the “fractional inhibitory concentration index (FICI)” value [4] was 0.31, the “fractional inhibitory concentration index (FICI)” value [5] was 0.5 and the “fractional inhibitory concentration index (FICI)” value [7] was 0.75. For the same compound, the “fractional inhibitory concentration index (FICI)” value [6] was 0.5.

`CO[C@H]1/C=C/O[C@@]2(C)Oc3c(C)c(O)c4c(O)c(c(/C=N/N5CCN(C)CC5)c(O)c4c3C2=O)NC(=O)/C(C)=C\C=C\[C@H](C)[C@H](O)[C@@H](C)[C@@H](O)[C@@H](C)[C@H](OC(C)=O)[C@@H]1C` [RIFAMPIN] was tested, and the MIC99 [1] was 1.26 µM (≈ 1.04 µg/mL).

Work on `CN[C@@H]1[C@H](O)[C@H](NC)[C@H]2O[C@@]3(O)C(=O)C[C@@H](C)O[C@H]3O[C@@H]2[C@H]1O` [SPECTINOMYCIN] yielded an MIC99 [1] of 84.1 µM (≈ 28 µg/mL).

`CN[C@@H]1[C@H](O[C@H]2[C@H](O[C@H]3[C@H](O)[C@@H](O)[C@H](N=C(N)N)[C@@H](O)[C@@H]3N=C(N)N)O[C@@H](C)[C@]2(O)C=O)O[C@@H](CO)[C@H](O)[C@H]1O` [STREPTOMYCIN] showed an MIC99 [1] of 0.07 µM (≈ 0.0407 µg/mL).
